Data from patent US6872719B1, “Phenylalanine enamide derivatives” (Celltech R & D Limited, priority 2002, dated 2005).

Target: T1, α4β1 integrin (Homo sapiens, UniProt P05556+P13612)
T1 construct: 2.5×10^5 Jurkat cells in the presence or absence of titrated test compounds; endogenous in cells; host or cells: Jurkat cells
Test: α4β1 Integrin-Dependent Jurkat Cell Adhesion to VCAM-Ig
Format: cell-based
Conditions: inhibition of Jurkat cell adhesion to 2d VCAM-1-hFc
Method: α4β1 Integrin-Dependent Jurkat Cell Adhesion to VCAM-Ig
96 well NUNC plates were coated with F(ab)2 fragment goat anti-human IgG Fcγ-specific antibody [Jackson Immuno Research 109-006-098: 100 μl at 2 μg/ml in 0.1M NaHCO3, pH 8.4], overnight at 4°. The plates were washed (3×) in phosphate-buffered saline (PBS) and then blocked for 1 h in PBS/1% BSA at room temperature on a rocking platform. After washing (3× in PBS) 35 ng/ml of purified 2d VCAM-1-hFc diluted in PBS/1% BSA was added and the plates left for 60 minutes at room temperature on a rocking platform. The plates were washed (3× in PBS) and the assay then performed at 37° for 30 min in a total volume of 200 μl containing 2.5×10^5 Jurkat cells in the presence or absence of titrated test compounds.
Each plate was washed (2×) with medium and the adherent cells were fixed with 100 μl methanol for 10 minutes followed by another wash. 100 μl 0.25% (w/v) Rose Bengal (Sigma R4507) in PBS was added for 5 minutes at room temperature and the plates washed (3×) in PBS. 100 μl 50% (v/v) ethanol in PBS was added and the plates left for 60 min after which the absorbance (570 nm) was measured.

T1 sequence (P13612 34-1032): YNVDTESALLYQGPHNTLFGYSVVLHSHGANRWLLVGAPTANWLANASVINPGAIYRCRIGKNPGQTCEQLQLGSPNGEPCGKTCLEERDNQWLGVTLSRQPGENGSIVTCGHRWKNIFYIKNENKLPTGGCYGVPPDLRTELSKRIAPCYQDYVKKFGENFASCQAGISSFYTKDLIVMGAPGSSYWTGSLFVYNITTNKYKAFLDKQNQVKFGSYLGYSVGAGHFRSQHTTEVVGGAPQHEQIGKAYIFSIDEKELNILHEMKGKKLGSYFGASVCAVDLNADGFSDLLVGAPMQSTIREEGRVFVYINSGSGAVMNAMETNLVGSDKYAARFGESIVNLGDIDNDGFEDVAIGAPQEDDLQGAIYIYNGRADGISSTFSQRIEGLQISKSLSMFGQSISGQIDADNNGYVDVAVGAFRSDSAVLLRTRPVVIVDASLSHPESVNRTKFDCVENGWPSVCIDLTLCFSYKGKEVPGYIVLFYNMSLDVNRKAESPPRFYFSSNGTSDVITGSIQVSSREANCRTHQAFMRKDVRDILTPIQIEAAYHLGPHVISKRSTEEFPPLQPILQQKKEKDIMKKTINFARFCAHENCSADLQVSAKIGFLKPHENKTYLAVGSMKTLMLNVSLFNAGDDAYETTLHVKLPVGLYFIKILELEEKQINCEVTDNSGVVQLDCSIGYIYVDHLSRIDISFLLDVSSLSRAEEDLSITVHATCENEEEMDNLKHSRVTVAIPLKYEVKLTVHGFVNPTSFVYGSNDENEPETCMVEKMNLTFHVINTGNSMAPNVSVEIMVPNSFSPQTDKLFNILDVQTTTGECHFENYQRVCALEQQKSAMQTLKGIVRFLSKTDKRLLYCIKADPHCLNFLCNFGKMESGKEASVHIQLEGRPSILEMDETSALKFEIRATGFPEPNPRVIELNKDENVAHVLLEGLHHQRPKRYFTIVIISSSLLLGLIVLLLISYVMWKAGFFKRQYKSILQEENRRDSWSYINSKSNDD
T1 sequence (P05556 21-798): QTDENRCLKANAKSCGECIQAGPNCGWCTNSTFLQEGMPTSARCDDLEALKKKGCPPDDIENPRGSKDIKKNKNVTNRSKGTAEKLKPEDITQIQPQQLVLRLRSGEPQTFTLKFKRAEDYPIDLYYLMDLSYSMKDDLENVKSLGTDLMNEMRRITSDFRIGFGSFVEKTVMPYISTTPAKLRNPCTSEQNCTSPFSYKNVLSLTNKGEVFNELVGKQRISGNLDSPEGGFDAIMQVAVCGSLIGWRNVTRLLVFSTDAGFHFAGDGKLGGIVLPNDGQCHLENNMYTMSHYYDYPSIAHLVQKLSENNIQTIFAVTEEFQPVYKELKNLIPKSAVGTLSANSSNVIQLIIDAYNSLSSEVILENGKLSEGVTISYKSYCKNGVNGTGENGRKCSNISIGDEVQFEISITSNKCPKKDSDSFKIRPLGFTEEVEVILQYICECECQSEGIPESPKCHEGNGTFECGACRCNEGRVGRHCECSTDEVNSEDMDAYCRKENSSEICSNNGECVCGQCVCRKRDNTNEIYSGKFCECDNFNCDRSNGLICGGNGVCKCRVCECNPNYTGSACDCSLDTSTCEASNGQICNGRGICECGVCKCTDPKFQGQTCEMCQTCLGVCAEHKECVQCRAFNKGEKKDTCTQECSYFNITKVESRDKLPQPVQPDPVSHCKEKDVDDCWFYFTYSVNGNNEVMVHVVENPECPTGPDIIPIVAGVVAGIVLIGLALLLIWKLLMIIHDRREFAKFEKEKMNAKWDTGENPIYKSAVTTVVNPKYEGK

O=C(Nc1ccc(C[C@H](NC2=C(Br)C(=O)C23CCCCC3)C(=O)OCCO)cc1)c1c(Cl)cncc1Cl [Example 1, 2-Hydroxyethyl (2S)-2-(2-bromo-3-oxo-spiro[3,5]non-1-en-1-ylamino)-3-{4-[(3,5-dichlorolsonicotinoyl)amino]phenyl}propanoate]
IC50: 4 nM
